Experimental data as given in publication PMC9402538, “Rational design of a sensitivity-enhanced tracer for discovering efficient APC–Asef inhibitors” (Nature Communications, 2022).
Where two headings read alike, the source gives them in different places. Where a SMILES comes first, the peptide text is derived from it. The star is where a group is joined. Benzoyl(4-OMe) = COc1ccc(C(=O)*)cc1

Molecular target: T1, APC (303–739) (Homo sapiens, UniProt P25054)
T1 sequence (P25054 303-739): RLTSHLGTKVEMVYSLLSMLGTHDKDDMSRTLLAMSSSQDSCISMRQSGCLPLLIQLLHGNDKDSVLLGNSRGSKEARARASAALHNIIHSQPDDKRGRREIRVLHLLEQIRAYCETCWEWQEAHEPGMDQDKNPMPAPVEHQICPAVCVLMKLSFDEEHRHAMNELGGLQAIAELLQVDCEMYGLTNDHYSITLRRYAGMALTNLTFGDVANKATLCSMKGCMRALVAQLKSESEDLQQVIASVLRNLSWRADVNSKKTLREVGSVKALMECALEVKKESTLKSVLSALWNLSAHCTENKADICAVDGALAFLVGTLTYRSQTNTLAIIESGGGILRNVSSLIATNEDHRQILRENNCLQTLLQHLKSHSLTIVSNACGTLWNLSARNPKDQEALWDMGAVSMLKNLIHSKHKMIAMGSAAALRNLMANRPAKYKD
Assay: FP competitive assay using tracer 7
Format: binding
Conditions: for IC50: Table 3 source data
How it was run: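 Fluorescence polarization competition: APC (303–739) in 50 mM HEPES pH 7.5, 300 mM NaCl, 1 mM EDTA, 1 mM DTT, preincubated 1 h at room temperature with serially diluted peptides. FITC tracer 7 then added (400 nM stock) and FP read after 1.5 h at room temperature; IC50 by nonlinear regression, triplicates.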

COc1ccc(C(=O)N[C@@H](C)C(=O)NCC(=O)N[C@@H](CCC(=O)O)C(=O)N[C@@H](CO)C(=O)N[C@@H](CC(C)C)C(=O)N[C@@H](Cc2ccc(O)cc2)C(=O)N[C@@H](CCC(=O)O)C(N)=O)cc1 [MAI-516] ({Benzoyl(4-OMe)}-AGESLYE-NH2)
inhibition at 0.0002 µM (Conc. 0.0002 μM, individual repeats, Fig3b, read-out: %inhibition): 0.5% | inhibition at 0.0005 µM (Conc. 0.0005 μM, individual repeats, Fig3b, read-out: %inhibition): -0.4% | inhibition at 0.001 µM (Conc. 0.001 μM, individual repeats, Fig3b, read-out: %inhibition): 0.3% | inhibition at 0.002 µM (Conc. 0.002 μM, individual repeats, Fig3b, read-out: %inhibition): 0.4% | inhibition at 0.0024 µM (Conc. 0.0024 μM, individual repeats, Fig3b, read-out: %inhibition): 2.8% | inhibition at 0.0039 µM (Conc. 0.0039 μM, individual repeats, Fig3b, read-out: %inhibition): 3.1% | inhibition at 0.0049 µM (Conc. 0.0049 μM, individual repeats, Fig3b, read-out: %inhibition): 6.1% | inhibition at 0.006 µM (Conc. 0.006 μM, individual repeats, Fig3b, read-out: %inhibition): 3.8% | inhibition at 0.0078 µM (Conc. 0.0078 μM, individual repeats, Fig3b, read-out: %inhibition): 6.6% | inhibition at 0.0098 µM (Conc. 0.0098 μM, individual repeats, Fig3b, read-out: %inhibition): 13.7% | inhibition at 0.012 µM (Conc. 0.012 μM, individual repeats, Fig3b, read-out: %inhibition): 8.8% | inhibition at 0.0156 µM (Conc. 0.0156 μM, individual repeats, Fig3b, read-out: %inhibition): 19.4% | inhibition at 0.0195 µM (Conc. 0.0195 μM, individual repeats, Fig3b, read-out: %inhibition): 28.4% | inhibition at 0.024 µM (Conc. 0.024 μM, individual repeats, Fig3b, read-out: %inhibition): 22.1% | inhibition at 0.0313 µM (Conc. 0.0313 μM, individual repeats, Fig3b, read-out: %inhibition): 44% | inhibition at 0.0391 µM (Conc. 0.0391 μM, individual repeats, Fig3b, read-out: %inhibition): 48.7% | inhibition at 0.049 µM (Conc. 0.049 μM, individual repeats, Fig3b, read-out: %inhibition): 44.6% | inhibition at 0.0625 µM (Conc. 0.0625 μM, individual repeats, Fig3b, read-out: %inhibition): 65.8% | inhibition at 0.0781 µM (Conc. 0.0781 μM, individual repeats, Fig3b, read-out: %inhibition): 67.8% | inhibition at 0.098 µM (Conc. 0.098 μM, individual repeats, Fig3b, read-out: %inhibition): 67.3% | inhibition at 0.125 µM (Conc. 0.125 μM, individual repeats, Fig3b, read-out: %inhibition): 80.6% | inhibition at 0.1563 µM (Conc. 0.1563 μM, individual repeats, Fig3b, read-out: %inhibition): 82% | inhibition at 0.195 µM (Conc. 0.195 μM, individual repeats, Fig3b, read-out: %inhibition): 81.2% | inhibition at 0.25 µM (Conc. 0.25 μM, individual repeats, Fig3b, read-out: %inhibition): 89.6% | inhibition at 0.3125 µM (Conc. 0.3125 μM, individual repeats, Fig3b, read-out: %inhibition): 90.7% | inhibition at 0.391 µM (Conc. 0.391 μM, individual repeats, Fig3b, read-out: %inhibition): 89.5% | inhibition at 0.5 µM (Conc. 0.5 μM, individual repeats, Fig3b, read-out: %inhibition): 95.1% | inhibition at 0.625 µM (Conc. 0.625 μM, individual repeats, Fig3b, read-out: %inhibition): 96% | inhibition at 0.781 µM (Conc. 0.781 μM, individual repeats, Fig3b, read-out: %inhibition): 94.6% | inhibition at 1 µM (Conc. 1 μM, individual repeats, Fig3b, read-out: %inhibition): 98.2% | inhibition at 1.25 µM (Conc. 1.25 μM, individual repeats, Fig3b, read-out: %inhibition): 98.2% | inhibition at 1.563 µM (Conc. 1.563 μM, individual repeats, Fig3b, read-out: %inhibition): 96.2% | inhibition at 2 µM (Conc. 2 μM, individual repeats, Fig3b, read-out: %inhibition): 99.4% | inhibition at 2.5 µM (Conc. 2.5 μM, individual repeats, Fig3b, read-out: %inhibition): 99.2% | inhibition at 3.125 µM (Conc. 3.125 μM, individual repeats, Fig3b, read-out: %inhibition): 98.2% | inhibition at 5 µM (Conc. 5 μM, individual repeats, Fig3b, read-out: %inhibition): 100% | inhibition at 6.25 µM (Conc. 6.25 μM, individual repeats, Fig3b, read-out: %inhibition): 98.1% | inhibition at 10 µM (Conc. 10 μM, individual repeats, Fig3b, read-out: %inhibition): 101% | inhibition at 12.5 µM (Conc. 12.5 μM, individual repeats, Fig3b, read-out: %inhibition): 98.5% | inhibition at 20 µM (Conc. 20 μM, individual repeats, Fig3b, read-out: %inhibition): 100% | inhibition at 25 µM (Conc. 25 μM, individual repeats, Fig3b, read-out: %inhibition): 99.7% | inhibition at 50 µM (Conc. 50 μM, individual repeats, Fig3b, read-out: %inhibition): 99% | mean (FP signal, FigS5) (Repeat 1, Conc. 0.0024 μM): 278.3 | mean (FP signal, FigS5) (Repeat 1, Conc. 0.0049 μM): 270.3 | mean (FP signal, FigS5) (Repeat 1, Conc. 0.0098 μM): 252 | mean (FP signal, FigS5) (Repeat 1, Conc. 0.0195 μM): 216.7 | mean (FP signal, FigS5) (Repeat 1, Conc. 0.0391 μM): 168 | mean (FP signal, FigS5) (Repeat 1, Conc. 0.0781 μM): 122 | mean (FP signal, FigS5) (Repeat 1, Conc. 0.1563 μM): 88 | mean (FP signal, FigS5) (Repeat 1, Conc. 0.3125 μM): 67 | mean (FP signal, FigS5) (Repeat 1, Conc. 0.625 μM): 54.3 | mean (FP signal, FigS5) (Repeat 1, Conc. 1.25 μM): 49 | mean (FP signal, FigS5) (Repeat 1, Conc. 2.5 μM): 46.7 | mean (FP signal, FigS5) (Repeat 1, Conc. 5 μM): 44.3 | mean (FP signal, FigS5) (Repeat 1, Conc. 10 μM): 42.7 | mean (FP signal, FigS5) (Repeat 1, Conc. 20 μM): 44.3 | IC50 (Repeat 1, read-out: IC50(μM) Repeat 1): 0.0453 µM | mean (FP signal, FigS5) (Repeat 2, Conc. 0.0002 μM): 302.3 | mean (FP signal, FigS5) (Repeat 2, Conc. 0.0005 μM): 304.7 | mean (FP signal, FigS5) (Repeat 2, Conc. 0.001 μM): 303 | mean (FP signal, FigS5) (Repeat 2, Conc. 0.002 μM): 302.7 | mean (FP signal, FigS5) (Repeat 2, Conc. 0.0039 μM): 295.7 | mean (FP signal, FigS5) (Repeat 2, Conc. 0.0078 μM): 286.7 | mean (FP signal, FigS5) (Repeat 2, Conc. 0.0156 μM): 253.7 | mean (FP signal, FigS5) (Repeat 2, Conc. 0.0313 μM): 190.3 | mean (FP signal, FigS5) (Repeat 2, Conc. 0.0625 μM): 134.3 | mean (FP signal, FigS5) (Repeat 2, Conc. 0.125 μM): 96.3 | mean (FP signal, FigS5) (Repeat 2, Conc. 0.25 μM): 73 | mean (FP signal, FigS5) (Repeat 2, Conc. 0.5 μM): 59 | mean (FP signal, FigS5) (Repeat 2, Conc. 1 μM): 51 | mean (FP signal, FigS5) (Repeat 2, Conc. 2 μM): 48 | IC50 (Repeat 2, read-out: IC50(μM) Repeat 2): 0.0412 µM | mean (FP signal, FigS5) (Repeat 3, Conc. 0.006 μM): 307.3 | mean (FP signal, FigS5) (Repeat 3, Conc. 0.012 μM): 294 | mean (FP signal, FigS5) (Repeat 3, Conc. 0.024 μM): 259 | mean (FP signal, FigS5) (Repeat 3, Conc. 0.049 μM): 199.7 | mean (FP signal, FigS5) (Repeat 3, Conc. 0.098 μM): 140 | mean (FP signal, FigS5) (Repeat 3, Conc. 0.195 μM): 103.3 | mean (FP signal, FigS5) (Repeat 3, Conc. 0.391 μM): 81.3 | mean (FP signal, FigS5) (Repeat 3, Conc. 0.781 μM): 68 | mean (FP signal, FigS5) (Repeat 3, Conc. 1.563 μM): 63.7 | mean (FP signal, FigS5) (Repeat 3, Conc. 3.125 μM): 58.3 | mean (FP signal, FigS5) (Repeat 3, Conc. 6.25 μM): 58.7 | mean (FP signal, FigS5) (Repeat 3, Conc. 12.5 μM): 57.7 | mean (FP signal, FigS5) (Repeat 3, Conc. 25 μM): 54.3 | mean (FP signal, FigS5) (Repeat 3, Conc. 50 μM): 56.3 | IC50 (Repeat 3, read-out: IC50(μM) Repeat 3): 0.0379 µM | IC50 (mean of 3 repeats, read-out: IC50(μM) mean): 0.0415 µM
